From US20130084335A1, “IVABRADINE-CONTAINING PHARMACEUTICAL COMPOSITION” (ratiopharm GmbH, priority 2010, published 2013)

How the values were obtained:
[1] = Particle size by laser diffractometry; type: physicochemical
Method: The term “particle size” according to the present invention relates to the maximum diameter of the equivalent product assuming spherical opaque particles showing the same light scattering pattern and the same diffraction as the active substance particles. According to the invention the particle size is determined by means of laser light diffraction. The determination of the size distribution results from the analysis of the diffraction pattern that is obtained if particles are exposed to a monochromatic light beam. The particles refract the light with small particles refracting the light in a greater angle than large particles. The refracted light is measured by a number of photo detectors arranged in different angles. On the other hand, the light spectra of the […] have to be recorded by light-sensitive detectors in greater angles over the laser beam. Large particles result in greater intensity maxima with small angles, small particles to weaker intensity maxima with greater angles. Thus, in the laser light diffraction the pattern resulting from the interaction of the light with the particles is used for the determination of the particle size.
According to the invention the particle size is determined by means of laser diffractometry. For that, a Mastersizer 2000 by Malvern Instruments having the corresponding sample dispersing unit Hydro S is used. The wet measurement (2500 rpm, ultrasound 10-20 min., shading 5 to 20%) takes place in a dispersion of sunflower oil with the particle spacing in the dispersion being about 3-5 times greater than the particle diameter.
Moreover, the Mie theory defines the secondary scattering caused by the refraction of the light on small particles, as in the international rules of the laser diffraction measurement. (ISO 13320)
The determination of the particle size for particles D50 smaller than 5.0 μm is carried out according to the Mie method and for particles D50 greater than 5.0 μm according to the Fraunhofer method.

[2] = Stability at different temperatures and humidities in open or closed containers (polymorphic form); type: physicochemical; details: for Stability, summary in words: various conditions, phase transition in particular in open containers
Method: XRD samples were analysed on a Bruker-AXS D8 Advance powder X-Ray diffractometer. The measurement conditions were as follows: • Measurement in Bragg-Brentano-Geometry on vertical goniometer (reflection, theta/theta, 435 mm measurement circle diameter) • with sample rotation (30 rpm) on 9 position sample stage • Radiation: Cu Kα1 (1.5406 Å), Tube (Siemens FLCu2K), power 40 kV/40 mA • Detector: position sensitive detector VANTEC-1 • 3° capture angle (2theta), • Anti scatter slit 6.17 mm • Detector slit 10.39 mm • 4° soller slit, • primary beam stop (<2° 2theta) • Monochromator: None • Second β filter: Ni filter 0.1 mm (0.5%) • Start angle: 2° • End Angle: 55° • Measurement time: 11 min • Step: 0.016° 2Theta • Software: EVA (Bruker-AXS, Karlsruhe).
The stability of ivabradine adipate in comparison to ivabradine hydrochloride form I was investigated at different temperatures and humidities in open or closed containers for different storage times.

Compound | Particle size D50 [1] [μm] | Particle size D90 [1] [μm] | Stability (crystal form after storage) ([2]; 25° C./60%, closed, 57 d) | Stability (crystal form after storage) ([2]; 25° C./60%, open, 57 d) | Stability (crystal form after storage) ([2]; 30° C./65%, closed, 57 d) | Stability (crystal form after storage) ([2]; 30° C./65%, open, 57 d) | Stability (crystal form after storage) ([2]; 40° C./75%, closed, 57 d) | Stability (crystal form after storage) ([2]; 40° C./75%, open, 57 d) | Stability, summary in words [2] | Stability (crystal form after storage) ([2]; 25° C./60%, closed, 33 d) | Stability (crystal form after storage) ([2]; 25° C./60%, open, 33 d) | Stability (crystal form after storage) ([2]; 30° C./65%, closed, 33 d) | Stability (crystal form after storage) ([2]; 30° C./65%, open, 33 d) | Stability (crystal form after storage) ([2]; 40° C./75%, closed, 33 d) | Stability (crystal form after storage) ([2]; 40° C./75%, open, 33 d)
COc1cc2c(cc1OC)CC(=O)N(CCCN(C)C[C@H]1Cc3cc(OC)c(OC)cc31)CC2.O=C(O)CCCCC(=O)O [Ivabradine adipate] | 18.35 | 52.71 | unchanged | unchanged | unchanged | unchanged | unchanged | unchanged | stable at various conditions | – | – | – | – | – | –
COc1cc2c(cc1OC)CC(=O)N(CCCN(C)C[C@H]1Cc3cc(OC)c(OC)cc31)CC2.Cl [Ivabradine HCl form I] | 19.10 | 44.11 | – | – | – | – | – | – | undergoes phase transition into ivabradine HCl, form beta, or form d | unchanged | β + | unchanged | β | unchanged | β
